In patent publication US20180272034A1, “USE OF CSA COMPOUNDS TO PREVENT MICROBIAL BUILD-UP OR FOULING OF MEDICAL IMPLANTS” (BRIGHAM YOUNG UNIVERSITY, priority 2017, published 2018):

Tests used:
Pseudomonas aeruginosa = details: mixed-species biofilms grown 22 hours, 20 hours of treatment
Procedure: (§1) Several CSA compounds were tested against Pseudomonas aeruginosa and Staphylococcus aureus mixed-species biofilms grown for an initial 22 hours and subjected to 20 hours of treatment.

Staphylococcus aureus [1] = details: mixed-species biofilms grown 22 hours, 20 hours of treatment
Procedure: as §1

Klebsiella pneumonia = test: Log10 reduction, coated PVC endotracheal tube segments and media; format: cell-based; details: CSA-131 polymer coating about 39.4 μg/cm^2 vs uncoated, 24 hours
Procedure: (§2) Segments of polyvinyl chloride (PVC) endotracheal tubes measuring 3 cm in length were placed in wells of a 6 well plate. 7 ml of inoculum were placed in each well. Testing was repeated in triplicate for each test article. The samples were placed on a rotary shaker (110 revolutions per minute) and incubated at 37±2° C. for 24 hours. At the end of 24 hours the bacteria in the inoculum were characterized via serial dilution, plating, and counting. The endotracheal tube segment was also removed and neutralized. After neutralization, the adherent biofilm biomass was removed and characterized via serial dilution, plating, and counting.
(§3) As the number of viable organisms recovered from the treated catheters is expected to be low, a membrane filtration method provides an appropriate analysis for counting recovered organisms. The remaining recovery solution was filtered through a 0.45 μm filter membrane. Filters were placed on TSA/SDA/NA/TSBA plates and incubated at 37±2° C. and counted after sufficient incubation.
(§4) The log reduction is calculated by determining the Log10 difference between uncoated devices and associated media and coated devices (using a polymer coating including CSA-131 at about 39.4 μg/cm^2) and associated media. The log reduction is calculated as follows:
(§5) Log reduction(Media)=Control Log10(CFU/ml)−Test Log10(CFU/ml)
(§6) Log10(CFU/ml)=Log10(CFU/ml+1)
(§7) Log reduction(Device)=Control Log10(CFU/device)−Test Log10(CFU/device)
(§8) Log10(CFU/device)=Log10(CFU/device+1)

[2] = system: Staphylococcus aureus MRSA; test: as above; format: cell-based; details: CSA-131 polymer coating about 39.4 μg/cm^2 vs uncoated, 24 hours
Procedure: as §2, §3, §4, §5, §6, §7, §8

[3] = system: All (74) clinical isolates; test: Broth microdilution MIC, HABP/VABP clinical isolates; format: cell-based
Procedure: (§9) CSA-131 was tested in vitro against a set of clinical isolates representing bacterial species commonly associated with hospital-acquired bacterial pneumonia (HABP) or ventilator-associated bacterial pneumonia (VABP). Antimicrobial susceptibility testing for 74 clinical isolates was performed. Broth microdilution using frozen-form MIC panels consisted of three media types: cation-adjusted Mueller-Hinton broth (CA-HMB), CA-HMB supplemented with 2.5-5% lysed horse blood for S. pneumoniae and Haemophilus test media (HTM) for Haemophilus spp.

Enterobacteriaceae = test: as above; format: cell-based; details: Enterobacteriaceae (22)
Procedure: as §9

Haemophilus spp. = test: as above; format: cell-based
Procedure: as §9

Staphylococcus aureus [4] = test: as above; format: cell-based; details: Staphylococcus aureus (10)
Procedure: as §9

Streptococcus Pneumoniae = test: as above; format: cell-based; details: Streptococcus Pneumoniae (10)
Procedure: as §9

Non-fermenters = test: as above; format: cell-based, A. baumannii species complex, P. aeruginosa, S. maltophilia; details: Non-fermenters (22)
Procedure: as §9

[5] = Duration of efficacy of silicone-based Foley catheter with CSA-131; details: hydrogel coating approximately 10 μm including CSA-131
Source text: A silicone-based Foley catheter was coated with a hydrogel coating of approximately 10 μm in thickness. The coating included CSA-131. The coating was initially shown to maintain efficacy for about 6-7 days. A silicone-based Foley catheter was formed using silicone mixed with an NDSA salt form of CSA-131.

[6] = Pre-term lambs intubated with coated endotracheal tubes, tracheal mucosal integrity; format: in vivo
Source text: Pre-term lambs were intubated using endotracheal tubes (ETTs) including a coating having CSA-131. Tracheal mucosal integrity of the lambs was compared to the tracheal mucosal integrity of a control group (intubated with uncoated ETTs). […] FIG. 2 illustrates the histological appearance of tracheas of the premature lambs that were intubated for three days. […] An area of denuded epithelium (arrowhead), and accumulation of white blood cells (arrow) are highlighted.

SMILES: CCCCCCCCCCCCNCCC[C@@H](C)[C@H]1CC[C@H]2[C@@H]3[C@H](OCCCN)C[C@@H]4C[C@H](OCCCN)CC[C@]4(C)[C@H]3C[C@H](OCCCN)[C@]12C.Cl.Cl.Cl.Cl [CSA-131]
- MBC P. aeruginosa (Pseudomonas aeruginosa): 3.125 µg/mL
- MIC P. aeruginosa (Pseudomonas aeruginosa): 3.125 µg/mL
- MBC S. aureus (Staphylococcus aureus [1]): 1.56 µg/mL
- MIC S. aureus (Staphylococcus aureus [1]): 0.78 µg/mL
- Log10 Reduction Device (Klebsiella pneumonia; 06-0140-M4505): 5.21
- Log10 Reduction Media (Klebsiella pneumonia; 06-0140-M4505): 9.49
- Log10 Reduction Total (Klebsiella pneumonia; 06-0140-M4505): 7.85
- Log10 Reduction Device (Klebsiella pneumonia; 4352 (clinical)): 4.91
- Log10 Reduction Media (Klebsiella pneumonia; 4352 (clinical)): 6.56
- Log10 Reduction Total (Klebsiella pneumonia; 4352 (clinical)): 7.70
- Log10 Reduction Device (Klebsiella pneumonia; ATCC 29011): 3.80
- Log10 Reduction Media (Klebsiella pneumonia; ATCC 29011): 6.76
- Log10 Reduction Total (Klebsiella pneumonia; ATCC 29011): 6.82
- Log10 Reduction Device ([2]; 399 (clinical)): 6.24
- Log10 Reduction Media ([2]; 399 (clinical)): 8.89
- Log10 Reduction Total ([2]; 399 (clinical)): 8.23
- Log10 Reduction Device ([2]; 456 (clinical)): 6.77
- Log10 Reduction Media ([2]; 456 (clinical)): 9.63
- Log10 Reduction Total ([2]; 456 (clinical)): 9.63
- Log10 Reduction Device ([2]; U of C #18 (clinical)): 5.92
- Log10 Reduction Media ([2]; U of C #18 (clinical)): 9.36
- Log10 Reduction Total ([2]; U of C #18 (clinical)): 8.44
- MIC50 [3]: 4 µg/mL
- MIC90 [3]: 8 µg/mL
- No. of isolates at MIC 2 μg/ml [3]: 23
- No. of isolates at MIC 4 μg/ml [3]: 40
- No. of isolates at MIC 8 μg/ml [3]: 11
- cumulative % inhibited at 2 μg/ml [3]: 31.1%
- cumulative % inhibited at 4 μg/ml [3]: 85.1%
- cumulative % inhibited at 8 μg/ml [3]: 100%
- MIC50 (Enterobacteriaceae): 4 µg/mL
- MIC90 (Enterobacteriaceae): 4 µg/mL
- No. of isolates at MIC 2 μg/ml (Enterobacteriaceae): 4
- No. of isolates at MIC 4 μg/ml (Enterobacteriaceae): 18
- No. of isolates at MIC 8 μg/ml (Enterobacteriaceae): 0
- cumulative % inhibited at 2 μg/ml (Enterobacteriaceae): 18.2%
- cumulative % inhibited at 4 μg/ml (Enterobacteriaceae): 100%
- cumulative % inhibited at 8 μg/ml (Enterobacteriaceae): 100%
- MIC50 (Haemophilus spp.; Haemophilus spp. (10)): 8 µg/mL
- MIC90 (Haemophilus spp.; Haemophilus spp. (10)): 8 µg/mL
- No. of isolates at MIC 4 μg/ml (Haemophilus spp.; Haemophilus spp. (10)): 0 (0%)
- No. of isolates at MIC 8 μg/ml (Haemophilus spp.; Haemophilus spp. (10)): 10
- cumulative % inhibited at 2 μg/ml (Haemophilus spp.; Haemophilus spp. (10)): 0 (0%)
- cumulative % inhibited at 4 μg/ml (Haemophilus spp.; Haemophilus spp. (10)): 0 (0%)
- cumulative % inhibited at 8 μg/ml (Haemophilus spp.; Haemophilus spp. (10)): 100%
- No. of isolates at MIC 2 μg/ml (Haemophilus spp.; Haemophilus spp. (10): 8 H. influenza, 2 H. parainfluenzae): 0 (0%)
- MIC50 (Staphylococcus aureus [4]): 2 µg/mL
- MIC90 (Staphylococcus aureus [4]): 2 µg/mL
- No. of isolates at MIC 2 μg/ml (Staphylococcus aureus [4]): 10
- No. of isolates at MIC 4 μg/ml (Staphylococcus aureus [4]): 0
- No. of isolates at MIC 8 μg/ml (Staphylococcus aureus [4]): 0
- cumulative % inhibited at 2 μg/ml (Staphylococcus aureus [4]): 100%
- cumulative % inhibited at 4 μg/ml (Staphylococcus aureus [4]): 100%
- cumulative % inhibited at 8 μg/ml (Staphylococcus aureus [4]): 100%
- MIC50 (Streptococcus Pneumoniae): 4 µg/mL
- MIC90 (Streptococcus Pneumoniae): 4 µg/mL
- No. of isolates at MIC 2 μg/ml (Streptococcus Pneumoniae): 0 (0%)
- No. of isolates at MIC 4 μg/ml (Streptococcus Pneumoniae): 10
- No. of isolates at MIC 8 μg/ml (Streptococcus Pneumoniae): 0
- cumulative % inhibited at 2 μg/ml (Streptococcus Pneumoniae): 0 (0%)
- cumulative % inhibited at 4 μg/ml (Streptococcus Pneumoniae): 100%
- cumulative % inhibited at 8 μg/ml (Streptococcus Pneumoniae): 100%
- MIC50 (Non-fermenters): 4 µg/mL
- MIC90 (Non-fermenters): 4 µg/mL
- No. of isolates at MIC 2 μg/ml (Non-fermenters): 9
- No. of isolates at MIC 4 μg/ml (Non-fermenters): 12
- No. of isolates at MIC 8 μg/ml (Non-fermenters): 1
- cumulative % inhibited at 2 μg/ml (Non-fermenters): 40.9%
- cumulative % inhibited at 4 μg/ml (Non-fermenters): 95.5%
- cumulative % inhibited at 8 μg/ml (Non-fermenters): 100%
- time coating maintains efficacy [5]: 6 to 7 days
- tracheal mucosal integrity vs control group (uncoated ETTs) ([6]; pre-term lambs intubated with ETTs coated with CSA-131 coating): markedly improved mucosal integrity
- histological appearance of trachea (FIG. 2, image b) ([6]; premature lambs intubated for three days, CSA-131 coated ETT): the epithelium is healthy and intact, and the subjacent connective tissue region is not inflamed
